Results: patent US8067537B2, “Composition and method for treatment of stomatitis” (Kyowa Hakko Bio Co., Ltd., priority 2004, dated 2011)

Tested on: chronic stomatitis
Test: Effectiveness of glutathione in treatment of cat stomatitis
Type: in vivo
[1] = one cat with AIDS and serious chronic stomatitis, 30 mg/kg per day mixed in the feed for two weeks

Molecule	improvement of chronic stomatitis (same cat, nearly 10 years of treatment before the glutathione)	appetite [1]	fauces erosion and gum inflammation [1]
interferon [reference compound]	no improvement	–	–
N[C@@H](CCC(=O)N[C@@H](CS)C(=O)NCC(=O)O)C(=O)O [reduced glutathione, gamma-L-Glu-L-Cys-Gly]	–	improved	dramatic improvements
